The values that follow come from PMC4757856 (Medchemcomm, 2015).

SMILES strings stand for the structures. Some results are limits rather than exact numbers.

For one series, the target named is T1, PfNMT (Plasmodium falciparum, UniProt Q9U419).
T1 sequence (Q9U419 1-410): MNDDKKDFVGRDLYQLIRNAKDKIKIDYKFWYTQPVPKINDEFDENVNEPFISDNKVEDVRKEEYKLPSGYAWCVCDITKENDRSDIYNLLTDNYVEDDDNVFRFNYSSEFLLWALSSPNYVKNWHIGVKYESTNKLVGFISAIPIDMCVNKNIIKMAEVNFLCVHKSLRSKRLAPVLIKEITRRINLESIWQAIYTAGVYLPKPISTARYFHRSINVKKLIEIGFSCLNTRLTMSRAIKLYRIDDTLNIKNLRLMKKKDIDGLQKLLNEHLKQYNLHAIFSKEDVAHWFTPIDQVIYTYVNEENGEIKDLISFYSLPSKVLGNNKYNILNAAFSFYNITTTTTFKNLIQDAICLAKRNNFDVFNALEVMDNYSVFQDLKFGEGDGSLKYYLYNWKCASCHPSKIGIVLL
Put plainly: NMT enzyme inhibition assay. The format is biochemical. Conditions: for LipE: LipE = pKi (PfNMT) - clog P.

Another series relates to HepG2 cell line. Put plainly: HepG2 toxicity assay. The format is cell-based, human. The conditions noted are these: 48 hours, MTS.

For the compound `c1ccc(Cc2noc(-c3cccnc3OC3CCNCC3)n2)cc1` [Compound 7], the “fold improvement in enzyme affinity” value at PfNMT (PfNMT, 7 vs. 3) was 10 fold.
For `COc1cccc(Cc2noc(-c3ccccc3OC3CCNCC3)n2)c1` [Compound 18], the LipE at PfNMT was 3.32.
Compound `Cc1nn(C)c(C)c1Cc1noc(-c2cccnc2OC2CCNCC2)n1` [Compound 25] came in with an LD50 in the series on HepG2 cell line of over 100 µM.
On the same count and under the same terms, under `Cc1nn(C)c(C)c1Cc1noc(-c2cccnc2OC2CCN(C(C)C)CC2)n1` [Compound 28] stands over 100 µM.
For `c1cnc(OC2CCNCC2)c(-c2nc(Cc3cccc4ncccc34)no2)c1` [Compound 30], the LipE on PfNMT was 5.63.
